From patent US20110207745A1 (priority 2009, published 2011)
Where “and” joins values, the source holds several entries; their conditions need not be identical. Equal values may be shown once. Where a name gives a salt, the structure may show the parent alone. Read-outs that look alike come from different tables or passages of the source.

How the values were obtained:
[1] = for % Purity after 60° C./80% RH, 2 wks / % Purity after 80° C., 2 wks: 2 weeks; for % Purity after 60° C./80% RH, 2 wks / % Purity after 60° C./80% RH, 4 wks / % Purity after 80° C., 2 wks / % Purity after 80° C., 4 wks / Initial Purity / % Purity after 40° C./75% RH, 2 wks / % Purity after 40° C./75% RH, 4 wks: HPLC area %; for % Purity after 60° C./80% RH, 4 wks / % Purity after 80° C., 4 wks: 4 weeks; for Initial Purity: before storage
Protocol: Stress Experiments. Solids are stressed under different temperature or relative humidity (RH) environments for a measured time period. Specific RH values are achieved by placing the sample inside sealed chambers containing saturated salt solutions, as known in the art. The salt solutions are selected and prepared following an ASTM standard procedure. Samples are analyzed by XRPD immediately after removal from the stress environment.
Analyses are carried out on an Agilent® model 1100 high performance liquid chromatograph using gradient elution on a reversed phase column utilizing ultraviolet (UV) detection. Approximately 25 mg of the sample is weighed accurately and dissolved in methanol/water/trifluoroacetic acid (35:65:0.05) to a volume of 50 mL. The sample solution is analysed using the conditions specified below:
The content of the drug and related substances are quantified by area (%).
Chemical Stability. The chemical stability of Form I of the mono-HCl salt of Compound A1 was assessed by stressing the material at various temperature/relative humidity/light conditions, then analyzing by HPLC.
Chemical Stability Data. The chemical stability of a sample of Form I of the sesquifumarate salt of Compound A1 was assessed by stressing the material at various temperature/relative humidity/light conditions, then analyzing by HPLC.

[2] = Intrinsic dissolution rate in simulated biological media; assay type: physicochemical
Protocol: Intrinsic dissolution rate is determined at 37° C. using a Distek Dissolution System model 5100A with a sample size of approximately 200 mg (0.5 cm^2 disc) and 500 mL dissolution medium. The paddle speed is set to 500 rpm and the paddle height to approximately 2.54 cm above the disc surface. The concentration of sample in solution is determined by HPLC.

[3] = Solubility in simulated biological media; assay type: physicochemical; settings: FaSSIF (fasted-state simulated intestinal fluid), initial pH 6.51, mean ± SD, n = 2
Excerpt: Solubility and Dissolution Rate Data.
Solubility and Dissolution Rate Data. […]

rat = test: Punished responding procedure (modified Geller-Seifter conflict test); settings: 3.5 μmol/kg by mouth
Excerpt: Method. In the conflict test, hungry animals were trained to lever-press for food delivery in a standard operant chamber under 2 conditions. In the first condition, referred to as the unsuppressed component, food was delivered on average after 17 lever-presses were made (also called a VR17 schedule of reinforcement). In the second condition, referred to as the suppressed component and signaled by flashing lights inside the operant chamber, food was also delivered following an average of 17 lever-presses, but electric shock was additionally delivered to the floor of the cage under a separate VR17 schedule. Daily sessions consisted of 5 alternating presentations of each component type: suppressed (3 minutes in duration) and unsuppressed (2 minutes in duration). The number of lever presses emitted in the suppressed component was obviously low relative to the unsuppressed component.
Drug Administration and Preparation. […] Monday and Wednesday were washout/baseline days.
Apparatus. Standard 2-lever operant chambers were used (Med Associates). The chambers were fitted with 2 retractable response levers and a stimulus lamp over each of the 2 levers. A pellet dispenser delivered 45 mg food pellets, (Bio Serv) to a cup located inside of the chamber below and between the 2 response levers. A lamp at the top and back of the chamber served as houselights. The grid floors of the operant chambers were interfaced to shock generators and scramblers (Med Associates). All events in the chambers were controlled and monitored by a microprocessor.
Procedures. There were 2 components in the procedure: 1) an unsuppressed responding component (unpunished) with 2 minutes in duration; and 2) a suppressed responding component (punished) with 3 minutes in duration.
In the unpunished component, the houselights and both stimulus lamps over the response levers were turned on, the lever on the left-hand side of the chamber extended, and a food pellet was delivered following an average of 17 responses on the lever in the chamber (range 3 to 40 responses)—a variable-ratio 17 schedule (VR17).
In the punished component (which followed the unpunished component), the right-hand lever was extended into the chamber; the stimulus lamps and houselights were turned on and off at 1 second intervals, in succession, which served as a cue for this component; and food was available under a VR17 schedule, but was accompanied by an electrical current (0.5 second duration) that was delivered to the grid floor of the chamber under an independent VR17 schedule. The level of the current was adjusted for each individual subject until responding was reduced in the punished component to a level that was about 5% to 10% that of the unpunished component, and ranged from 0.2 mA to 0.75 mA. Unpunished and punished components were separated by 10 second time-out periods in which both response levers were retracted and all stimulus lamps turned off. 2 minute unpunished and 3 minute punished components alternated until 5 of each were completed. Daily sessions always began with the unpunished responding component. […] Several doses were tested on a given test day in different subjects. Each dose, then, was tested in different sub-set of rats.
Data Analysis. The dependent variables recorded were the rate of responding in unpunished and punished components (total responses/total time under the component) and the number of shocks delivered.

[4] = Ultraviolet light, 25° C./60% RH, 2x ICH (2 days), stored open
[5] = Ultraviolet light, 25° C./60% RH, 3x ICH (3 days), stored open
[6] = Ultraviolet light, 25° C./60% RH, ICH (1 day), stored open
[7] = White light, 25° C./60%, ICH (7 days), stored open

## CCN(CC)C(=O)c1ccc([C@H](c2cccc(N)c2)N2CCN(Cc3ccc(F)cc3)CC2)cc1 [Amorphous Tri-HCl Salt of Compound A1, 4-{(R)-(3-aminophenyl)[4-(4-fluorobenzyl)piperazin-1-yl]methyl}-N,N-diethylbenzamide]
[1]
  % Purity after 60° C./80% RH, 2 wks: 93.5%
  % Purity after 60° C./80% RH, 4 wks: 89.7%
  Initial Purity: 97.7%
[1]; 80° C.
  % Purity after 80° C., 2 wks: 93.1%
  % Purity after 80° C., 4 wks: 91.1%

## CCN(CC)C(=O)c1ccc([C@H](c2cccc(N)c2)N2CCN(Cc3ccc(F)cc3)CC2)cc1 [Form I of the mono-HCl salt of Compound A1] [4-{(R)-(3-aminophenyl)[4-(4-fluorobenzyl)piperazin-1-yl]methyl}-N,N-diethylbenzamide]
[2]; FaSSIF, initial pH 6.51, mean ± SD, n = 2
  IDR (intrinsic dissolution rate): 48.4 μg/min/cm^2
[2]; FaSSIF, initial pH 6.51, mean ± SD, n = 2, listed as Form I of the Compound A1 Mono-HCl Salt
  IDR (intrinsic dissolution rate): 48.4 ± 7.12 μg/min/cm^2
[2]; FeSSIF, initial pH 5.03, mean ± SD, n = 2
  IDR (intrinsic dissolution rate): 91.6 μg/min/cm^2
[2]; FeSSIF, initial pH 5.03, mean ± SD, n = 2, listed as Form I of the Compound A1 Mono-HCl Salt
  IDR (intrinsic dissolution rate): 91.6 ± 5.48 μg/min/cm^2
[2]; SGF, initial pH 1.3
  IDR (intrinsic dissolution rate): too soluble to permit determination of its IDR
[3]; 3 hr
  Solubility, 3 hr: 1.72 mg/mL
[3]; 24 hr
  Solubility, 24 hr: 0.83 mg/mL
[1]; 25° C./60% RH, 7 days
  % Purity (after challenge): 99.8%
  % Purity (reference material): 103.2%
[1]; 40° C./75% RH
  % Purity after 40° C./75% RH, 2 wks: 97.3% and 98.8%
  % Purity after 40° C./75% RH, 4 wks: 97.2% and 98.8%
[1]; 40° C./75% RH, 7 days
  % Purity (after challenge): 99.8%
  % Purity (reference material): 102.1%
[1]
  % Purity after 60° C./80% RH, 2 wks: 90.4% and 97.6%
  % Purity after 60° C./80% RH, 4 wks: 89.0% and 95.3%
  Initial Purity: 97.0% and 98.7%
[1]; 80° C.
  % Purity after 80° C., 2 wks: 94.1% and 96.9%
  % Purity after 80° C., 4 wks: 92.3% and 95.4%
[1]; 80° C., 7 days
  % Purity (after challenge): 99.8%
  % Purity (reference material): 101.4%
[1]; Reference, 0 days
  % Purity (after challenge): 99.8%
  % Purity (reference material): 100%
[1]; [4]
  % Purity (after challenge): 99.2%
  % Purity (reference material): 95.0%
[1]; [5]
  % Purity (after challenge): 99.0%
  % Purity (reference material): 94.7%
[1]; [6]
  % Purity (after challenge): 99.6%
  % Purity (reference material): 98.0%
[1]; [7]
  % Purity (after challenge): 98.5%
  % Purity (reference material): 95.6%

## CCN(CC)C(=O)c1ccc([C@H](c2cccc(N)c2)N2CCN(Cc3ccc(F)cc3)CC2)cc1 [Phosphate Salt of Compound A1, 4-{(R)-(3-aminophenyl)[4-(4-fluorobenzyl)piperazin-1-yl]methyl}-N,N-diethylbenzamide]
[1]; 40° C./75% RH
  % Purity after 40° C./75% RH, 2 wks: 88.6%
  % Purity after 40° C./75% RH, 4 wks: 87.7%
[1]
  % Purity after 60° C./80% RH, 2 wks: 81.4%
  % Purity after 60° C./80% RH, 4 wks: 78.4%
  Initial Purity: 91.2%
[1]; 80° C.
  % Purity after 80° C., 2 wks: 86.6%
  % Purity after 80° C., 4 wks: 83.4%

## CCN(CC)C(=O)c1ccc([C@H](c2cccc(N)c2)N2CCN(Cc3ccc(F)cc3)CC2)cc1 [Sulfate Salt of Compound A1, 4-{(R)-(3-aminophenyl)[4-(4-fluorobenzyl)piperazin-1-yl]methyl}-N,N-diethylbenzamide]
[1]; 40° C./75% RH
  % Purity after 40° C./75% RH, 2 wks: 92.6% and 88.7%
  % Purity after 40° C./75% RH, 4 wks: 91.2% and 87.3%
[1]
  % Purity after 60° C./80% RH, 2 wks: 74.1% and 80.5%
  % Purity after 60° C./80% RH, 4 wks: 62.3% and 80.6%
  Initial Purity: 93.3% and 94.7%
[1]; 80° C.
  % Purity after 80° C., 2 wks: 78.5% and 88.7%
  % Purity after 80° C., 4 wks: 67.1% and 85.7%

## CN1C(=O)CN=C(c2ccccc2)c2cc(Cl)ccc21 [diazepam, reference compound]
rat
  level of efficacy in modified Geller-Seifter conflict model: about 250%
